What was measured:
Test in all cases: cells
Conditions in all cases: Homo sapiens
CP66-MEL = assay type: functional, cell-based;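 also: growth inhibition of CP66-MEL cells determined in a cell viability assay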
Description: SANGER: Inhibition of human CP66-MEL cell growth in a cell viability assay.

D-263MG = assay type: functional, cell-based
Description: SANGER: Inhibition of human D-263MG cell growth in a cell viability assay.

DB = assay type: functional, cell-based
Description: SANGER: Inhibition of human DB cell growth in a cell viability assay.

DU-4475 = assay type: functional, cell-based
Description: SANGER: Inhibition of human DU-4475 cell growth in a cell viability assay.

ES6 = assay type: functional, cell-based;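 also: growth inhibition of human ES6 cells, read out with a cell viability assay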
Description: SANGER: Inhibition of human ES6 cell growth in a cell viability assay.

G-401 = assay type: functional, cell-based
Description: SANGER: Inhibition of human G-401 cell growth in a cell viability assay.

GCIY = assay type: functional, cell-based;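 also: growth inhibition of the human GCIY cell line, read out by a cell viability assay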
Description: SANGER: Inhibition of human GCIY cell growth in a cell viability assay.

GI-ME-N = assay type: functional, cell-based;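 also: growth inhibition of human GI-ME-N cells, read out with a cell viability assay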
Description: SANGER: Inhibition of human GI-ME-N cell growth in a cell viability assay.

HCC 2998 = assay type: functional, cell-based;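 also: growth inhibition of human HCC2998 cells, measured with a cell viability read-out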
Description: SANGER: Inhibition of human HCC2998 cell growth in a cell viability assay.

HO-1-N-1 = assay type: functional, cell-based;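 also: growth inhibition of human HO-1-N-1 cells, read out with a cell viability assay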
Description: SANGER: Inhibition of human HO-1-N-1 cell growth in a cell viability assay.

HuTu80 = assay type: functional, cell-based, HUTU-80;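 also: growth inhibition of HuTu80 human cells, determined with a cell viability readout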
Description: SANGER: Inhibition of human HUTU-80 cell growth in a cell viability assay.

IST-MEL1 = assay type: functional, cell-based;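 also: growth inhibition of the cell line, read out with a cell viability assay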
Description: SANGER: Inhibition of human IST-MEL1 cell growth in a cell viability assay.

IST-MES1 = assay type: functional, cell-based;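 also: growth inhibition of IST-MES1 cells, measured with a cell viability assay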
Description: SANGER: Inhibition of human IST-MES1 cell growth in a cell viability assay.

KE-37 = assay type: functional, cell-based;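 also: growth inhibition of KE-37 cells, read out with a cell viability assay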
Description: SANGER: Inhibition of human KE-37 cell growth in a cell viability assay.

KM-H2 = assay type: functional, cell-based;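 also: growth inhibition of KM-H2 cells, read out by a cell viability assay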
Description: SANGER: Inhibition of human KM-H2 cell growth in a cell viability assay.

KNS-81-FD = assay type: functional, cell-based;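 also: growth inhibition of KNS-81-FD cells, read out with a cell viability assay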
Description: SANGER: Inhibition of human KNS-81-FD cell growth in a cell viability assay.

KURAMOCHI = assay type: functional, cell-based;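 also: growth inhibition of KURAMOCHI cells, read out with a cell viability assay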
Description: SANGER: Inhibition of human KURAMOCHI cell growth in a cell viability assay.

LB373-MEL-D = assay type: functional, cell-based;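 also: growth inhibition of the cell line, read out in a cell viability assay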
Description: SANGER: Inhibition of human LB373-MEL-D cell growth in a cell viability assay.

LXF-289 cell line = assay type: functional, cell-based
Description: SANGER: Inhibition of human LXF-289 cell growth in a cell viability assay.

MEG-01 = assay type: functional, cell-based;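 also: growth inhibition of MEG-01 cells, read out by a cell viability assay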
Description: SANGER: Inhibition of human MEG-01 cell growth in a cell viability assay.

MMAC-SF = assay type: functional, cell-based;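 also: growth inhibition of human MMAC-SF cells, read out with a cell viability assay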
Description: SANGER: Inhibition of human MMAC-SF cell growth in a cell viability assay.

MS-1 = assay type: functional, cell-based;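 also: growth inhibition of MS-1 cells, read out by cell viability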
Description: SANGER: Inhibition of human MS-1 cell growth in a cell viability assay.

MSTO-211H = assay type: functional, cell-based
Description: SANGER: Inhibition of human MSTO-211H cell growth in a cell viability assay.

MV4-11 = assay type: functional, cell-based, MV-4-11;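 also: cell viability readout measuring growth inhibition of human MV-4-11 cells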
Description: SANGER: Inhibition of human MV-4-11 cell growth in a cell viability assay.

MZ7-mel = assay type: functional, cell-based;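 also: growth inhibition of human MZ7-mel cells, measured by a cell viability assay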
Description: SANGER: Inhibition of human MZ7-mel cell growth in a cell viability assay.

Mo = assay type: functional, cell-based
Description: SANGER: Inhibition of human Mo-T cell growth in a cell viability assay.

NB5 = assay type: functional, cell-based;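 also: growth inhibition of NB5 cells, read out as cell viability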
Description: SANGER: Inhibition of human NB5 cell growth in a cell viability assay.

NB6 = assay type: functional, cell-based;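 also: growth inhibition of NB6 cells, read out by a cell viability assay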
Description: SANGER: Inhibition of human NB6 cell growth in a cell viability assay.

NCI-H1395 = assay type: functional, cell-based;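 also: cell viability assay read-out quantifying reduced proliferation of human NCI-H1395 cells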
Description: SANGER: Inhibition of human NCI-H1395 cell growth in a cell viability assay.

NCI-H1650 = assay type: functional, cell-based;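 also: growth inhibition of human NCI-H1650 cells measured by a cell viability assay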
Description: SANGER: Inhibition of human NCI-H1650 cell growth in a cell viability assay.

NCI-H292 = assay type: functional, cell-based;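 also: growth inhibition of NCI-H292 cells, read out with a cell viability assay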
Description: SANGER: Inhibition of human NCI-H292 cell growth in a cell viability assay.

NCI-H358 = assay type: functional, cell-based;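 also: growth inhibition of NCI-H358 human cells, read out with a cell viability assay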
Description: SANGER: Inhibition of human NCI-H358 cell growth in a cell viability assay.

NCI-H526 = assay type: functional, cell-based;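 also: growth inhibition of the human NCI-H526 cell line, measured by a cell viability assay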
Description: SANGER: Inhibition of human NCI-H526 cell growth in a cell viability assay.

NEC8 = assay type: functional, cell-based;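 also: growth inhibition of human NEC8 cells, read out by a cell viability assay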
Description: SANGER: Inhibition of human NEC8 cell growth in a cell viability assay.

NKM-1 = assay type: functional, cell-based;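 also: growth inhibition of NKM-1 cells, read out with a cell viability assay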
Description: SANGER: Inhibition of human NKM-1 cell growth in a cell viability assay.

PFSK-1 = assay type: functional, cell-based;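 also: cell viability assay measuring how strongly compounds suppress growth of human PFSK-1 cells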
Description: SANGER: Inhibition of human PFSK-1 cell growth in a cell viability assay.

RH-1 = assay type: functional, cell-based;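 also: growth inhibition of human RH-1 cells, read out with a cell viability assay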
Description: SANGER: Inhibition of human RH-1 cell growth in a cell viability assay.

RPMI-8866 = assay type: functional, cell-based
Description: SANGER: Inhibition of human RPMI-8866 cell growth in a cell viability assay.

RS4-11 = assay type: functional, cell-based;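 also: growth inhibition of RS4-11 cells, read out by a cell viability assay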
Description: SANGER: Inhibition of human RS4-11 cell growth in a cell viability assay.

SCC-15 = assay type: functional, cell-based;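 also: growth inhibition of SCC-15 cells, read out with a cell viability assay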
Description: SANGER: Inhibition of human SCC-15 cell growth in a cell viability assay.

SCC-9 = assay type: functional, cell-based;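 also: Read-out is a cell viability assay, with values giving inhibition of cell growth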
Description: SANGER: Inhibition of human SCC-9 cell growth in a cell viability assay.

SF-126 = assay type: functional, cell-based;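 also: growth inhibition of human SF126 cells, read out with a cell viability assay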
Description: SANGER: Inhibition of human SF126 cell growth in a cell viability assay.

SF-268 = assay type: functional, cell-based;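 also: growth inhibition of SF-268 cells determined with a cell viability assay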
Description: SANGER: Inhibition of human SF268 cell growth in a cell viability assay.

SK-N-FI = assay type: functional, cell-based;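 also: cell viability assay measuring growth inhibition of human SK-N-FI cells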
Description: SANGER: Inhibition of human SK-N-FI cell growth in a cell viability assay.

SNB-75 = assay type: functional, cell-based;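 also: cell viability assay measuring growth inhibition of human SNB-75 cells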
Description: SANGER: Inhibition of human SNB75 cell growth in a cell viability assay.

SW780 = assay type: functional, cell-based;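 also: growth inhibition of the cells, read out with a cell viability assay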
Description: SANGER: Inhibition of human SW780 cell growth in a cell viability assay.

SW 962 = assay type: functional, cell-based;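 also: growth inhibition of human SW962 cells, read out by a cell viability assay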
Description: SANGER: Inhibition of human SW962 cell growth in a cell viability assay.

SiHa = assay type: functional, cell-based;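 also: Viability-based readout of growth inhibition in SiHa cells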
Description: SANGER: Inhibition of human SiHa cell growth in a cell viability assay.

AM-38 = assay type: functional, cell-based;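 also: growth inhibition of AM-38 cells of human origin, read out by a cell viability assay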
Description: SANGER: Inhibition of human AM-38 cell growth in a cell viability assay.

ATN-1 = assay type: functional, cell-based;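 also: growth inhibition of human ATN-1 cells, read out with a cell viability assay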
Description: SANGER: Inhibition of human ATN-1 cell growth in a cell viability assay.

BE-13 = assay type: functional, cell-based;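 also: growth inhibition of human BE-13 cells, measured with a cell viability assay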
Description: SANGER: Inhibition of human BE-13 cell growth in a cell viability assay.

BT-474 = assay type: functional, cell-based
Description: SANGER: Inhibition of human BT-474 cell growth in a cell viability assay.

Becker = assay type: functional, cell-based;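 also: growth inhibition of Becker cells, read out with a cell viability assay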
Description: SANGER: Inhibition of human Becker cell growth in a cell viability assay.

C2BBe1 = assay type: functional, cell-based;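 also: growth inhibition of C2BBe1 cells, read out through a viability assay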
Description: SANGER: Inhibition of human C2BBe1 cell growth in a cell viability assay.

CAL-33 = assay type: functional, cell-based;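 also: growth inhibition of CAL-33 cells, read out with a cell viability assay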
Description: SANGER: Inhibition of human CAL-33 cell growth in a cell viability assay.

TE-12 = assay type: functional, cell-based;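 also: growth inhibition of TE-12 cells, read out by a cell viability assay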
Description: SANGER: Inhibition of human TE-12 cell growth in a cell viability assay.

TGBC24TKB = assay type: functional, cell-based;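 also: growth inhibition of human TGBC24TKB cells, read out with a cell viability assay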
Description: SANGER: Inhibition of human TGBC24TKB cell growth in a cell viability assay.

VA-ES-BJ = assay type: functional, cell-based;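 also: growth inhibition of the VA-ES-BJ cell line, read out by a cell viability assay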
Description: SANGER: Inhibition of human VA-ES-BJ cell growth in a cell viability assay.

COLO-684 = assay type: functional, cell-based
Description: SANGER: Inhibition of human COLO-684 cell growth in a cell viability assay.

CTV-1 = assay type: functional, cell-based
Description: SANGER: Inhibition of human CTV-1 cell growth in a cell viability assay.

EW-24 = assay type: functional, cell-based
Description: SANGER: Inhibition of human EW-24 cell growth in a cell viability assay.

HC-1 = assay type: functional, cell-based
Description: SANGER: Inhibition of human HC-1 cell growth in a cell viability assay.

Lu-65 = assay type: functional, cell-based
Description: SANGER: Inhibition of human LU-65 cell growth in a cell viability assay.

Measured: IC50

O=c1cc(N2CCOCC2)oc2c(-c3cccc4c3sc3ccccc34)cccc12
> 2 µM: CP66-MEL | D-263MG | DB | DU-4475 | ES6 | G-401 | GCIY | GI-ME-N | HCC 2998 | HO-1-N-1 | HuTu80 | IST-MEL1 | IST-MES1 | KE-37 | KM-H2 | KNS-81-FD | KURAMOCHI | LB373-MEL-D | LXF-289 cell line | MEG-01 | MMAC-SF | MS-1 | MSTO-211H | MV4-11 | MZ7-mel | Mo | NB5 | NB6 | NCI-H1395 | NCI-H1650 | NCI-H358 | NKM-1 | PFSK-1 | RH-1 | RPMI-8866 | RS4-11 | SCC-15 | SCC-9 | SF-126 | SF-268 | SK-N-FI | SNB-75 | SW780 | SW 962 | SiHa | AM-38 | ATN-1 | BE-13 | BT-474 | Becker | C2BBe1 | CAL-33 | TE-12 | TGBC24TKB | VA-ES-BJ | COLO-684
1.74 µM: NCI-H292
0.284 µM: NCI-H526
1.55 µM: NEC8

NC(=O)c1ncn([C@@H]2O[C@H](COP(=O)(O)O)[C@@H](O)[C@H]2O)c1N
412 µM: ATN-1
1160 µM: HC-1
466 µM: SCC-15
534 µM: KE-37
1770 µM: MZ7-mel
108 µM: MV4-11
180 µM: NKM-1
351 µM: RS4-11
266 µM: CTV-1
1030 µM: AM-38
597 µM: C2BBe1
819 µM: VA-ES-BJ
1400 µM: SNB-75
1740 µM: MSTO-211H
425 µM: MS-1
793 µM: HO-1-N-1
91.3 µM: DB
365 µM: BE-13
> 2000 µM: CP66-MEL | D-263MG | ES6 | EW-24 | G-401 | GI-ME-N | HCC 2998 | HuTu80 | IST-MEL1 | KNS-81-FD | KURAMOCHI | LB373-MEL-D | Lu-65 | MMAC-SF | Mo | NB5 | NB6 | NCI-H1395 | NCI-H1650 | NCI-H292 | NCI-H358 | NEC8 | PFSK-1 | RH-1 | RPMI-8866 | SCC-9 | SF-126 | SF-268 | SW780 | SW 962 | SiHa | BT-474 | Becker | TE-12
115 µM: NCI-H526
447 µM: MEG-01
736 µM: TGBC24TKB
1170 µM: KM-H2
1310 µM: CAL-33
894 µM: COLO-684
